Reference: ChEMBL document CHEMBL1201862, “PubChem BioAssay data set” (2004)
Calls of active or inactive are those of the source.

Experiments:
[1] = CRF-BP/CRF-R2 complex antagonists, dose response, cell-based, uHTS hits, 384-well (AID 651639); type: functional, Homo sapiens; conditions: read-out: IC50_Mean
[2] = biological target: T1, Corticotropin-releasing factor receptor 2/Corticotropin-releasing factor-binding protein (Homo sapiens, UniProt P24387+Q13324); test: Dose Response confirmation of uHTS hits for small molecule antagonists of the CRF-binding protein and CRF-R2 receptor complex.; type: functional; conditions: read-out: IC50_Mean
T1 sequence (Q13324 whole entry): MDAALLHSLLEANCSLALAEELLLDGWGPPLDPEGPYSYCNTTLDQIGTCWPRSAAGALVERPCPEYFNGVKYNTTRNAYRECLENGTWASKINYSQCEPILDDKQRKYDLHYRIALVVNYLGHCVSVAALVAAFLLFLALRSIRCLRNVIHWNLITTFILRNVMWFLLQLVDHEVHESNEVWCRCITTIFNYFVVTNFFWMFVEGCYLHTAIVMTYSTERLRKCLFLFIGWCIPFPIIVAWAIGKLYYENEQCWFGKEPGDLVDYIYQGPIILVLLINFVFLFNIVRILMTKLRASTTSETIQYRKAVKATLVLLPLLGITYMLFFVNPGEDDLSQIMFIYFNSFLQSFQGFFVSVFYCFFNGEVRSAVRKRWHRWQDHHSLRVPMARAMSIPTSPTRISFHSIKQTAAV
T1 sequence (P24387 whole entry): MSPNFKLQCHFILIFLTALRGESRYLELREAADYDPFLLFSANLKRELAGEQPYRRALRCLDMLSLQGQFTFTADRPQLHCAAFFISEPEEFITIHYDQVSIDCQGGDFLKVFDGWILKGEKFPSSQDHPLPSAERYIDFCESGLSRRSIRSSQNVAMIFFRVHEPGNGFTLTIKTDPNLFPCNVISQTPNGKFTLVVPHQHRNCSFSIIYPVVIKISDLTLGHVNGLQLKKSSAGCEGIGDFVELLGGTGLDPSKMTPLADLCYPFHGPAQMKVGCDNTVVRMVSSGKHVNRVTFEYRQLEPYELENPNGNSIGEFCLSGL

[3] = biological target: T1, Corticotropin-releasing factor receptor 2/Corticotropin-releasing factor-binding protein; test: activators of CRF receptor 2 with binding protein – uHTS hits, confirmation (AID 602473); type: functional; conditions: read-out: EC50_Mean
[4] = DNA binding of candidate compounds, dose response, artefact control for RAD54 inhibitor project, biochemical, fluorescence polarization, cherry-pick (AID 651673); type: functional
[5] = biological target: T2, DNA repair and recombination protein RAD54-like (Homo sapiens, UniProt Q92698); test: inhibitors of human RAD54 branch migration, confirmation, biochemical, fluorescence, cherry-picked samples, dose series (AID 651657); type: functional
T2 sequence (Q92698 whole entry): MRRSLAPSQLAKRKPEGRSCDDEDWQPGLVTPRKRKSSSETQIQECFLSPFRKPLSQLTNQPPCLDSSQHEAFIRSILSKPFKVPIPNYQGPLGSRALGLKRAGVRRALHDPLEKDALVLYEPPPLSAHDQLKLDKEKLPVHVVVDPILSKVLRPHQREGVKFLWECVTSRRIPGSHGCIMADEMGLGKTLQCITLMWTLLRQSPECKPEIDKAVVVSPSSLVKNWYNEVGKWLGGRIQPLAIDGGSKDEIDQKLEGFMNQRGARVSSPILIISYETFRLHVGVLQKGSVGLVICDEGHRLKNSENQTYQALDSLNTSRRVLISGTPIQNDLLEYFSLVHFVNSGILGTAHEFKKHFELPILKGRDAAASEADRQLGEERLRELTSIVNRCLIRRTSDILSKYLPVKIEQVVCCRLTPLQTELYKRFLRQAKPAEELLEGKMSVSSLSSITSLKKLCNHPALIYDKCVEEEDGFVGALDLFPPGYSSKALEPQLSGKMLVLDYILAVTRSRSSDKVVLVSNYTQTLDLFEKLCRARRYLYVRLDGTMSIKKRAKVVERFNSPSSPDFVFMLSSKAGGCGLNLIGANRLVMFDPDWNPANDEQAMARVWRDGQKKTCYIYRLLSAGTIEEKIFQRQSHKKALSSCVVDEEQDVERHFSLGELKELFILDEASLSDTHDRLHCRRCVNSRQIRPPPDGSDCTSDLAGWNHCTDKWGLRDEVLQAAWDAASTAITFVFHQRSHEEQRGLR

[6] = biological target: Arf-GAP with SH3 domain, ANK repeat and PH domain-containing protein 1 (Homo sapiens, UniProt Q9ULH1); type: functional;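 also: biochemical fluorescence polarization dose–response screen measuring inhibition of ASAP1; ASAP1 GAP domain stimulating GTP hydrolysis by truncated human ARF1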
Sequence of Arf-GAP with SH3 domain, ANK repeat and PH domain-containing protein 1 (Q9ULH1 whole entry, the tested form may be a part): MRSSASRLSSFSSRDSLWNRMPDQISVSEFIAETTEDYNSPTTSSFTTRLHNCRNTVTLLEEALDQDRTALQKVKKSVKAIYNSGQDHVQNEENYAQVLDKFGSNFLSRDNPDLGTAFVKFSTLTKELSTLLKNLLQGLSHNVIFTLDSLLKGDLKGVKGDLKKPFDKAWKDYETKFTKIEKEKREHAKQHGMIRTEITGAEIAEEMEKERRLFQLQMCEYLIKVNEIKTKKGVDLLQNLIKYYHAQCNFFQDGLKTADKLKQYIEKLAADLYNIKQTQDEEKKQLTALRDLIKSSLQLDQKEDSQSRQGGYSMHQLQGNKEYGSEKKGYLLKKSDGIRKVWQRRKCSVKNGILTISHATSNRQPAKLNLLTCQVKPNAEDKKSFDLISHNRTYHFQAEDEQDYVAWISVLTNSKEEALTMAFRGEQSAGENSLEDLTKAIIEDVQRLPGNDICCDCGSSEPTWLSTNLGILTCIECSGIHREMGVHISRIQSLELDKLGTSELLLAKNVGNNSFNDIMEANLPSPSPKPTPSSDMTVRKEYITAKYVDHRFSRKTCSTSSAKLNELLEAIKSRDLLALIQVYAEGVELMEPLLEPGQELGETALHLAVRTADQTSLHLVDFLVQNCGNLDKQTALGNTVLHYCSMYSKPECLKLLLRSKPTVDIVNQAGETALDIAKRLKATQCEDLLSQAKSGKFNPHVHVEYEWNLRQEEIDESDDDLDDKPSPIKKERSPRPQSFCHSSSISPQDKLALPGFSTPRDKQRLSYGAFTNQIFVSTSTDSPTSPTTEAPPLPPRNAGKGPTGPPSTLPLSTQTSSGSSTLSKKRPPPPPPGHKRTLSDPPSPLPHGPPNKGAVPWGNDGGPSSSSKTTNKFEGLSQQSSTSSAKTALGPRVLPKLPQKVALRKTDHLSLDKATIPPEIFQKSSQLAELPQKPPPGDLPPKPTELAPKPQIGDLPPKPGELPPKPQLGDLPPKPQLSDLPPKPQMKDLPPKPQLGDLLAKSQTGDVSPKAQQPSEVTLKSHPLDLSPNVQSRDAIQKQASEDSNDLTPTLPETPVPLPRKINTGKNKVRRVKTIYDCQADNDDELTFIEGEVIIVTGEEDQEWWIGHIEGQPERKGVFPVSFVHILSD

[7] = Fluorescence-based cell-based high throughput dose response assay for inhibitors of the interaction of nucleotide-binding oligomerization domain containing 2 (NOD2) and the receptor-interacting serine-threonine kinase 2 (RIPK2).; type: functional; conditions: Homo sapiens
Fatty acid synthase [8] = biological target: T3, Fatty acid synthase (Homo sapiens, UniProt P49327); test: FAS thioesterase domain inhibitors, dose response, biochemical, kinetic fluorescence intensity (AID 624326); type: functional;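 also: rate of fluorescence rise from hydrolysis of a fluorogenic O-methyl fluorescein ester substrate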
T3 sequence (P49327 whole entry, the tested form may be a part): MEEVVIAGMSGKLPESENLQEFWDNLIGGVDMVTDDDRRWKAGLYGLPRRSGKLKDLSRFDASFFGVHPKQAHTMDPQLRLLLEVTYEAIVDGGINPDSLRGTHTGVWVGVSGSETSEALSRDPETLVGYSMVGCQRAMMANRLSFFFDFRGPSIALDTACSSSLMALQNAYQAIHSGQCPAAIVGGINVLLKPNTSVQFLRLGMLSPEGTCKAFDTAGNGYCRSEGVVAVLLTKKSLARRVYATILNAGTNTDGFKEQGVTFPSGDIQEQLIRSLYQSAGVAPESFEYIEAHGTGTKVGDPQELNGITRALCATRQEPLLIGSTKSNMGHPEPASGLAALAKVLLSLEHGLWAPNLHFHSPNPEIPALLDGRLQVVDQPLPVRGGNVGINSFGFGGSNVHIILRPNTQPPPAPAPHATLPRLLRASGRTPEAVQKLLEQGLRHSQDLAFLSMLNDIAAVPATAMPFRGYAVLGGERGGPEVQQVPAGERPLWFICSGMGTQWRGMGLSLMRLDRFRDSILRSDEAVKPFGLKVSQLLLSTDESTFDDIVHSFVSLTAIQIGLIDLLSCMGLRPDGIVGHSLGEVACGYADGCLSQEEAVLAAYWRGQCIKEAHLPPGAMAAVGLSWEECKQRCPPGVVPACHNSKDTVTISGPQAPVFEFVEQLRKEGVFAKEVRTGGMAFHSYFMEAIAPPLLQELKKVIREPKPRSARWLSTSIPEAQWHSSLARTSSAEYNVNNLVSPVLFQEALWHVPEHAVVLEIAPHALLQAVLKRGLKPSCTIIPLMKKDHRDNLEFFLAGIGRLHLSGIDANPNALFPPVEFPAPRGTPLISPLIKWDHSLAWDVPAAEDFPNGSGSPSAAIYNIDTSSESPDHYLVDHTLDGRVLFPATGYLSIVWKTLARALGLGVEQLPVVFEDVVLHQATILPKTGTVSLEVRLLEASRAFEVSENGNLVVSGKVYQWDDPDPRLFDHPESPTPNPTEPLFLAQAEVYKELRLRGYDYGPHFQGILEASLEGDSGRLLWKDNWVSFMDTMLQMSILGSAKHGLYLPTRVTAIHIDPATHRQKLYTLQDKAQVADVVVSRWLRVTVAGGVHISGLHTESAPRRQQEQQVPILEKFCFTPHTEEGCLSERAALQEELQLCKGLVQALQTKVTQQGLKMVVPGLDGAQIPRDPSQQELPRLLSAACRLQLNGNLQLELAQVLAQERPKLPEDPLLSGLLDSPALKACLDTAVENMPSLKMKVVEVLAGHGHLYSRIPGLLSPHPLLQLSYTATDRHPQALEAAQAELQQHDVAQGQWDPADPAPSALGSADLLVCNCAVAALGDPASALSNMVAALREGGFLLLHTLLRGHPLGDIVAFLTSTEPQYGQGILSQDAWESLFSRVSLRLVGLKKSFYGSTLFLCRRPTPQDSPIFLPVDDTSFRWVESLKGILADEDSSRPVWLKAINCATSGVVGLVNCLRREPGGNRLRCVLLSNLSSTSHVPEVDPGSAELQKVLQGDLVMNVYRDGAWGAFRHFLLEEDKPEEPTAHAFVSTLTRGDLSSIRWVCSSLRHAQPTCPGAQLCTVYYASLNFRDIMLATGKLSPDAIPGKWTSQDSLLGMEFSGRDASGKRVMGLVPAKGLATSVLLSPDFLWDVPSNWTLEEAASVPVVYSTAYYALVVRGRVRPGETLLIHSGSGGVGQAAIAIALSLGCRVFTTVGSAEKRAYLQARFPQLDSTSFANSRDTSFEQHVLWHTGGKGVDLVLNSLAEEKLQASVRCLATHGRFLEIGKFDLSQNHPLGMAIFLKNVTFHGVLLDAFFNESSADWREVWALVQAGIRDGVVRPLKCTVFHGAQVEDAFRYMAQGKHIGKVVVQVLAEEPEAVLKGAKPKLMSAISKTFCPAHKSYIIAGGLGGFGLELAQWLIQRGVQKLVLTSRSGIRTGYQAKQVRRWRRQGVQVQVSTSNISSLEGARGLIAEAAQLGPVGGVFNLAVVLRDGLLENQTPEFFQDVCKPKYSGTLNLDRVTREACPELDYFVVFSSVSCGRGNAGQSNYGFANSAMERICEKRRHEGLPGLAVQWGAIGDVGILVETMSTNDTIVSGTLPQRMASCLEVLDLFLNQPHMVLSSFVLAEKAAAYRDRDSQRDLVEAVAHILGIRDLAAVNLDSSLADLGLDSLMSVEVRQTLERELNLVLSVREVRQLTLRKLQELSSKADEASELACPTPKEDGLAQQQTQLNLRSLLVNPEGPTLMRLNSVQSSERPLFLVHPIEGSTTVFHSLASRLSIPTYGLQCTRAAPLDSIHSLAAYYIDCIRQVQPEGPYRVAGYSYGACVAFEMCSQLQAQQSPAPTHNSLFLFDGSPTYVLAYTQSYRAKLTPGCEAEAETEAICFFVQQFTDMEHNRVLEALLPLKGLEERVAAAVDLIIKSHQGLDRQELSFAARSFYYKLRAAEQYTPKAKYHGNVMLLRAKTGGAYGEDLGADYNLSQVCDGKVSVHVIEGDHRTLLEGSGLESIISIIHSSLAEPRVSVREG

Beta Lactamase = Beta Lactamase (Pseudomonas aeruginosa, UniProt Q932Y6); test: beta-lactamase reporter inhibitor potency, dose response, artefact control for NOD2-RIPK2 interaction inhibitor project, BLA reporter cells, FRET fluorescence (AID 651552); type: functional, cell-based
Fatty acid synthase [9] = biological target: T3, Fatty acid synthase; test: FAS thioesterase domain inhibitors, dose response, biochemical, endpoint fluorescence intensity, uHTS hits (AID 624327); type: functional;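 also: fluorescence from hydrolysis of an O-methyl fluorescein acyl ester substrate by the enzyme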
[10] = CEM21 lymphoblast cell cytotoxicity, dose response, cytotoxicity control for viral fusion inhibitor project, CellTiter-Glo luminescence, cherry-picked (AID 652042); type: functional, cell-based;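 also: potency for signal decrease meaning cytotoxicity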
[11] = inhibitors of clade B AD8 Env fusion, dose response, cell-based, cherry-pick (AID 652062); type: functional;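 also: luciferase signal from cell-cell fusion driven by HIV-1 clade B AD8 Env; potency is for inhibitors of fusion seen as a drop in luminescence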
[12] = biological target: ADP-ribosylation factor GTPase-activating protein 1 (Rattus norvegicus, UniProt Q62848); test: Fluorescence polarization-based biochemical high throughput dose response screening assay to identify inhibitors of ADP-ribosylation factor GTPase activating protein 1 (ARFGAP1).; type: functional
Sequence of ADP-ribosylation factor GTPase-activating protein 1 (Q62848 whole entry): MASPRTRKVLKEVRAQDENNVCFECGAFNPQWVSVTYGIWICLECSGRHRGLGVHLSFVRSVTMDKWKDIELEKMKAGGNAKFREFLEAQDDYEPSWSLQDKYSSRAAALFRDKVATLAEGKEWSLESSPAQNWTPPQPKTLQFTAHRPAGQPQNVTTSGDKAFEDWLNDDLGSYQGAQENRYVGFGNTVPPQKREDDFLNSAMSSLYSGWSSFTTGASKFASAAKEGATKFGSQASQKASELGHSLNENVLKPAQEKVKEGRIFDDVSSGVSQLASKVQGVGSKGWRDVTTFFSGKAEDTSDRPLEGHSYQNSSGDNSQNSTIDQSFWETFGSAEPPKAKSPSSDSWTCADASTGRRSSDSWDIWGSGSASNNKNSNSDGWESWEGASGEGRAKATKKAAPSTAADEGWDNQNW

Vero = test: Vero cell toxicity, dose response, cytotoxicity control, plate reader, cherry-pick samples (AID 687020); type: functional, cell-based; conditions: Chlorocebus sabaeus
HEK293 = test: inhibitors of LMP1-driven NF-kB reporter, dose response, cell-based, HEK293, luciferase, cherry-pick (AID 588343); type: functional; conditions: Homo sapiens
[13] = inhibitors of SNCA 5'UTR-driven reporter translation, confirmation, H4 neuroglioma cells, luminescence (AID 1988); type: functional, cell-based
[14] = HEK293T cell cytotoxicity, dose response, cytotoxicity control for HIV Vif inhibitor project, cherry-picks (AID 652208); type: functional, cell-based
[15] = inhibitors of firefly luciferase expression or activity, dose response, H4 neuroglioma cells, luminescence (AID 1990); type: functional, cell-based
[16] = Luminescence Cell-Based Dose Response HTS to Identify Inhibitors of 5'UTR Stem-Loop Driven Prion Protein mRNA Translation in H4 Neuroglioblastoma Cells. [Related pubchem assays: 1827 (Project Summary), 1813 (Primary HTS)]; type: functional
[17] = biological target: T4, Type-1 angiotensin II receptor (Homo sapiens, UniProt P30556); test: AT1 receptor antagonists, dose response, selectivity assay for APJ receptor antagonist project, cell-based, uHTS hits (AID 463214); type: functional;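 also: antagonist potency against angiotensin II stimulated AT1 response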
T4 sequence (P30556 whole entry): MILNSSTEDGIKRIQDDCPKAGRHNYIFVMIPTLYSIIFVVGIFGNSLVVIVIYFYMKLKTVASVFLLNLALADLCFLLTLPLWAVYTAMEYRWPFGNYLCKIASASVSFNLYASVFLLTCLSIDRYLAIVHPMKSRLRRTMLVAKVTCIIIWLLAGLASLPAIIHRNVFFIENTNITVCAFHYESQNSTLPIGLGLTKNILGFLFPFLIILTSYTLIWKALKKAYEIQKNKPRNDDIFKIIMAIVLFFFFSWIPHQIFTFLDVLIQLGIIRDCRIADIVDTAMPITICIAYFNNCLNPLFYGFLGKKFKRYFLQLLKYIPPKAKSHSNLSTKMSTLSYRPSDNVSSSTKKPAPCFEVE

Beta-galactosidase = Beta-galactosidase (Escherichia coli, UniProt Q8VNN2); test: PubChem AID 485352; type: functional
Galanin receptor type 3 = Galanin receptor type 3 (Homo sapiens, UniProt O60755); test: Fluorescence-based cell-based primary high throughput dose response assay to identify antagonists of the Galanin Receptor 3 (GalR3).; type: functional
[18] = biological target: T5, Zinc finger protein mex-5 (Caenorhabditis elegans, UniProt Q9XUB2); test: MEX-5/TCR-2 RNA interaction inhibitors, dose response, biochemical, C. elegans, fluorescence polarization (AID 1960)
T5 sequence (Q9XUB2 whole entry): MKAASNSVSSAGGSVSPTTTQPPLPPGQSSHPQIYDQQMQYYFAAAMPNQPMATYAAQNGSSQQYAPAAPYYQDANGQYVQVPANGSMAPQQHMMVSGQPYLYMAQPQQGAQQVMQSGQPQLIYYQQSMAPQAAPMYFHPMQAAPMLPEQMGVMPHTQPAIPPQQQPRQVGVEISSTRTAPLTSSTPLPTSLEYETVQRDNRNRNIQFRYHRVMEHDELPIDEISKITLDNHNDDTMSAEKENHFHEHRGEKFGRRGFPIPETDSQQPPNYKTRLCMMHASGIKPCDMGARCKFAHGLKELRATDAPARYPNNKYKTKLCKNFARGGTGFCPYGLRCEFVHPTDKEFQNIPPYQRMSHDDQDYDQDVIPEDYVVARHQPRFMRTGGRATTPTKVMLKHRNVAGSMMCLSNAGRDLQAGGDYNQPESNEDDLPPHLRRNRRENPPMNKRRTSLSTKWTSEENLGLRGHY

[19] = biological target: Hepatocyte nuclear factor 4-alpha (Homo sapiens, UniProt P41235); type: functional, cell-based;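 also: biochemical luminescence-based dose-response counterscreen measuring inhibition of HNF4 dimerization, run alongside a screen for blockers of ABHD5–perilipin-5 interaction; split luciferase complementation of HNF4 fusion proteins in cell lysate measuring dimerization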
Genome polyprotein = Genome polyprotein (dengue virus type 2, UniProt P29990); test: Dengue-2 NS5 methyltransferase inhibitors, primary screen, biochemical, confirmation dose response (AID 588689); type: functional
Sequence of Genome polyprotein (P29990 2492-3391 limits assumed): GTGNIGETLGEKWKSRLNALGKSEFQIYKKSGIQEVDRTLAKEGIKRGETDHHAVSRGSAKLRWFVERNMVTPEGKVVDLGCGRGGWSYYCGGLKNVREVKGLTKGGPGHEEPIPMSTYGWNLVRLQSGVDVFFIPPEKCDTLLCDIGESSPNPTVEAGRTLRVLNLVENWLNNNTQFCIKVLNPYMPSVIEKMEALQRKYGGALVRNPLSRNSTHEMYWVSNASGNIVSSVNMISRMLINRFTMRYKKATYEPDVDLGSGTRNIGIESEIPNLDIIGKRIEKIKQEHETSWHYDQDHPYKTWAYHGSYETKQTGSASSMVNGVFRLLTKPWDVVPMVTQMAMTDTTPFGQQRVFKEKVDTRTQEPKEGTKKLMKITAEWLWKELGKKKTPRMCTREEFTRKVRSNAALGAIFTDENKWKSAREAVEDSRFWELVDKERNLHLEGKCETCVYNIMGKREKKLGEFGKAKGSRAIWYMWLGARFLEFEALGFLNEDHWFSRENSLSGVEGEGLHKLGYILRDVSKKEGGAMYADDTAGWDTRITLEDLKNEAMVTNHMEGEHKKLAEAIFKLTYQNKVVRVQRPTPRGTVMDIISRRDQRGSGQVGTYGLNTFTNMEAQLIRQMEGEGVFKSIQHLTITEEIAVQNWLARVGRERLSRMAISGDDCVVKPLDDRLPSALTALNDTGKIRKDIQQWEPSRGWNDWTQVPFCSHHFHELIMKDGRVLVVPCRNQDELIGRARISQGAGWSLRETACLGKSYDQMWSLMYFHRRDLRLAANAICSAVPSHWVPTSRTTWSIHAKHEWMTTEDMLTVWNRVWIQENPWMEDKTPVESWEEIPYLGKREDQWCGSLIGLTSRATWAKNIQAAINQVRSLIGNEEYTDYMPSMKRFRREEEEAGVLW

Protein skinhead-1 = biological target: T6, Protein skinhead-1 (Caenorhabditis elegans, UniProt P34707); type: functional
T6 sequence (P34707 whole entry): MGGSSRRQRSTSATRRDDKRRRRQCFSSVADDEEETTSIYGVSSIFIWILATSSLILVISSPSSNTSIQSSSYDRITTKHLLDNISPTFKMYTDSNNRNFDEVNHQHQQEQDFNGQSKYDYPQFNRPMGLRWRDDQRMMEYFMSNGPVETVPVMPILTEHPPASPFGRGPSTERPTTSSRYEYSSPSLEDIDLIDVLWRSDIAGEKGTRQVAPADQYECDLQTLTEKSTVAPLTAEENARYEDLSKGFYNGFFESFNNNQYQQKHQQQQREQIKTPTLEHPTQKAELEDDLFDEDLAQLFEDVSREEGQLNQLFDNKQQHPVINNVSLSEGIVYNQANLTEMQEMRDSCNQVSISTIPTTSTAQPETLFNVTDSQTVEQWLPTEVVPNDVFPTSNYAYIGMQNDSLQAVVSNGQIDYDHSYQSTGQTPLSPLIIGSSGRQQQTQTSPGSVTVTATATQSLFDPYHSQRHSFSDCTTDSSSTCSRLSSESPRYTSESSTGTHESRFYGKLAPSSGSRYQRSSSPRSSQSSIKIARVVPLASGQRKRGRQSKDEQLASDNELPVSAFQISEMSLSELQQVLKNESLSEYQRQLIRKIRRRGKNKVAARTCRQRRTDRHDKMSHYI

[20] = biological target: T7, RNA-binding protein pos-1 (Caenorhabditis elegans, UniProt G5EF15); test: inhibitors of POS-1/mex-3 RNA binding, dose response, biochemical, fluorescence polarization (AID 1964);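 also: purified POS-1 fused to maltose binding protein made in E. coli; potency of compounds blocking POS-1 binding to fluorescent RNA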
T7 sequence (G5EF15 whole entry): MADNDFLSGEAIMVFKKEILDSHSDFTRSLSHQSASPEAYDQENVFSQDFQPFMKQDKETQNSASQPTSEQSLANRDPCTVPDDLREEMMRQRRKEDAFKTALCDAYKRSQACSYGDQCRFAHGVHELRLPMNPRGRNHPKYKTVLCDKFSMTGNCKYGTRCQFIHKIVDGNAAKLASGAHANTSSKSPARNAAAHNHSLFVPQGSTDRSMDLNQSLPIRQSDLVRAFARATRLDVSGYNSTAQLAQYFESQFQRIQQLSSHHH

SMILES: COc1ccc(OC)c(S(=O)(=O)N2c3ccccc3CC2C)c1 (configuration not stated)
- IC50 [1]: 3.48 µM (active)
- IC50 [2]: 33.9 µM (active)
- EC50 [3]: > 53 µM (inactive)

SMILES: CCOC(=O)c1cnc2c(C)cc(Cl)cc2c1NCCCN1CCOCC1
- AC50 [4]: 60.9 µM (active)
- AC50 [5]: 17.4 µM (active)

SMILES: N=C(N/N=C/c1ccnc2ccccc12)SC1CC(=O)N(c2ccc(Br)cc2)C1=O (configuration not stated)
- IC50 [6]: 12.7 µM (inactive)

SMILES: O=C(Cn1nc(-c2ccc3c(c2)OCCO3)ccc1=O)Nc1ccc(-n2cnnn2)cc1
- IC50 [6]: 38.5 µM (inactive)

SMILES: CCOC(=O)[C@]12Cc3ccc(C)cc3[C@H]1N(C1CCCCC1)C(=O)c1ccccc12
- IC50 [7]: 2.19 µM (active)
- IC50 (Fatty acid synthase [8]): 6.79 µM (active)
- IC50 (Beta Lactamase): 20 µM (inactive)
- IC50 (Fatty acid synthase [9]): 6.12 µM (active)

SMILES: O=C(Nc1ccc(CN2CCOCC2)cc1)c1ccc(-c2cccc(Cl)c2)o1
- AC50 [10]: 44.2 µM (active)
- AC50 [11]: 32.2 µM (active)
- IC50 [12]: 81.7 µM (inactive)

SMILES: COc1ccc2ccccc2c1CNC(C)c1ccccc1 (configuration not stated)
- AC50 (Vero): 31 µM (active)

SMILES: COc1ccc2cc(-c3cc(C(=O)OCC(=O)NC4CCS(=O)(=O)C4)c4ccccc4n3)ccc2c1 (configuration not stated)
- AC50 (HEK293): 1.09 µM (active)
- EC50 [13]: 6.8 µM (active)
- AC50 [14]: 29.3 µM (active)
- EC50 [15]: 10.1 µM (inconclusive)
- EC50 [16]: 7.41 µM (active)

SMILES: Fc1ccc(NC(=S)NNc2ncc(C(F)(F)F)cc2Cl)c(F)c1
- IC50 [17]: 15.6 µM (active)
- EC50 (Beta-galactosidase): > 40 µM (inactive)
- IC50 (Galanin receptor type 3): 1.79 µM (active)

SMILES: COc1cc(/C=C(\C#N)c2ccccn2)ccc1OCC(=O)Nc1c(Cl)cccc1Cl
- IC50 [12]: 96.6 µM (inactive)

SMILES: CC(C)(C)c1cc(C(=O)NNC(=O)Nc2cccc(Cl)c2)n(Cc2ccccc2)n1
- IC50 [1]: 5.13 µM (active)
- IC50 [2]: 2 µM (active)
- EC50 [3]: > 53 µM (inactive)

SMILES: COC/C=C/C1=CC2=CC(=O)C(C)(OC(=O)C3CCCC3)C(=O)C2=CO1 (configuration not stated)
- EC50 [18]: > 300 µM (not active)
- IC50 [19]: 11.4 µM (inactive)
- IC50 (Genome polyprotein): 90.2 µM (active)
- IC50 (Protein skinhead-1): > 100 µM (inactive)
- EC50 [20]: > 300 µM (not active)
